From patent publication US12559720B2, “Mobilization and collection of peripheral blood hematopoietic stem cells and lymphocytes from deceased donors” (The Regents of the University of California, priority 2018, dated 2026)

How the values were obtained:
PB HSC's / CD34+ cells = conditions: cited from earlier work
[1] = system: CD34+ cells mobilized from bone marrow into peripheral blood; test: First working embodiment: single-dose plerixafor mobilization in a deceased donor, apheresis, then CD34+ isolation

whole body CT scans, routine hematology and serum chemistry panels before and after the procedure ([1]; deceased donor, single dose plerixafor): remained stable
SMILES: c1cc(CN2CCCNCCNCCCNCC2)ccc1CN1CCCNCCNCCCNCC1 [plerixafor, 1-{[4-(1,4,8,11-tetrazacyclotetradec-1-ylmethyl)phenyl]methyl}-1,4,8,11 tetrazacyclotetradecane]
peak onset of action (PB HSC's / CD34+ cells; after administration): 6 to 10 h | fraction of healthy donors who fail to produce desired numbers of CD34+ cells/kg (PB HSC's / CD34+ cells; single agent, standard dose 0.24 mg/kg, subcutaneously or intravenously): ⅓ | tolerability / organ toxicity (PB HSC's / CD34+ cells; single subcutaneous dose): well tolerated with no major organ toxicity | % CD34+ ([1]; Leukopak Product): 0.87% | % viability ([1]; Leukopak Product): 99.5% | TNC ([1]; Leukopak Product): 1.49E+10 | Total CD34+ (= % CD34+/100 x TNC) ([1]; Leukopak Product): 1.29E+08 | TNC/mL ([1]; Leukopak Product, single sc dose plerixafor, apheresis started 8 hours after dose, 24 liters processed): 3.23E+07 | % CD34+ ([1]; Positive (CD34) fraction): 95% | % viability ([1]; Positive (CD34) fraction): 95% | TNC ([1]; Positive (CD34) fraction): 1.22E+08 | TNC/mL ([1]; Positive (CD34) fraction): 2.60E+06 | Total CD34+ (= % CD34+/100 x TNC) ([1]; Positive (CD34) fraction): 1.16E+08 | tolerability of the procedure (vital signs, oxygenation, urine output) ([1]; deceased donor, single sc dose plerixafor (0.24 kg/mg), 8 hours apheresis): tolerated the procedure well | viable CD34+ cells isolated ([1]; first working embodiment): more than 1.0×10^8 cells | purity of isolated CD34+ cells ([1]; first working embodiment, after isolation): 90-95%
